Where two headings read alike, the source gives them in different places.

As usually defined, the IC50 is the midpoint of a concentration-inhibition curve.

Format in all cases: biochemical
Assay [1] concerns the target T1, Human PI3K gamma (Homo sapiens, UniProt P48736).
T1 construct: His (N); host or cells: SF9 insect cells (baculovirus)
In words: Human PI3K gamma enzyme assay (HTRF). From the text:
(§1) The catalytic subunits of PI3Ks are cloned into either pDEST8(p110 alpha) or pDEST10(p110beta, p110delta, and p110gamma) as N-terminal His tagged fusion proteins using the Gateway system (Invitrogen, catalog#11804-010 for pDEST8 and 11806-015 for pDEST10). The sequences are verified before recombinant protein expression using the Baculovirus Expression System with Gateway® Technology. The accession numbers for the subunits are as follows: • p110 alpha (GB:U79143) • p110beta (GB: S67334) • p110delta (GB: U86453) • p110gamma (GB: X83368) • The regulatory subunits of PI3Ks are cloned into pDEST8 as un-tagged protein using the Gateway system (Catalog#11804-010). The sequences are verified before recombinant protein expression using the Baculovirus Expression System with Gateway® Technology. The accession numbers for the subunits are as following: • p85 alpha (GB: BC030815) • p101(GB: AB028925) • VPS34 (accession number GB:BC033004) is cloned into pDEST20—Thombin as N-terminal GST tagged fusion proteins using the Gateway system (Invitrogen, catalog#11804-013). The sequences are verified before recombinant protein expression using the Baculovirus Expression System with Gateway® Technology.
(§2) For expression of the p110 complexes, the p85 (MOI of 4) is co-infected with p110 alpha, beta, and delta respectively (1MOI) in SF9 cells and harvested at 60 hours post co-infection. P110 gamma was infected at 1 MOI and harvested at 60 hours post infection.
(§3) For purification, PI3Ks are purified by Ni-NTA Agarose (Qiagen #30250) followed by Mono Q 10/100 GL (Ge Healthcare #17-5167-01). VPS34 is purified by Glutathione Sepharose 4 Fast Flow (GE Healthcare #17-5132-03) followed by HiTrap Q (GE Healthcare #17-1153-01).
(§4) 0.5 uL compounds in DMSO are added to wells of a 384 well microtitre plate (Corning 3575). At room temperature: 10 ul PI3K reaction buffer (50 mM Hepes, 5 mM DTT, 150 mM NaCl, 10 mM beta-glycerophosphate, 10 mM MgCl2, 0.25 mM sodium cholate and 0.001% CHAPS, pH 7.00) containing ATP (25 uM, Promega) is added followed immediately by 10 ul PI3K reaction buffer containing di-C8 P1(4,5)P2 (3.5 uM, CellSignals) and PI3Kalpha (0.4875 nM, Millennium Protein Sciences Group) and the mixture is incubated with shaking at room temperature for 30 minutes. Then 5 ul PI3K stop mix (50 mM Hepes, 5 mM DTT, 150 mM NaCl, 0.01% Tween-20, 15 mM EDTA and 25 nM biotin-PI(3,4,5)P3 (Echelon) is added to quench the reaction followed immediately by addition of 5 ul HTRF detection mix (50 mM Hepes, 5 mM DTT, 150 mM NaCl, 0.01% Tween-20, 40 mM KF, 1.0 nM GST:GRP-1 PH domain (Millennium Protein Sciences Group), 15 nM Streptavidin-XL (CisBio) and 0.375 nM anti-GST Eu++ antibody (CisBio) at pH 7.00). The plates are then incubated for 1 hour at room temperature with shaking and then read on a BMG PheraStar Plus reader.
(§5) 2) Human PI3K beta, delta and gamma isoforms are tested using the procedure described for PI3K alpha above but with the following changes: PI3K beta (5.25 nM), PI3K delta (0.75 nM) and PI3K gamma (5 nM). All isoforms supplied by Millennium Protein Science Group.
(§6) For the assay methods described above, test compound percent inhibition, at various concentrations, is calculated relative to control (DMSO and EDTA) treated samples. Compound concentration versus percent inhibition curves are fitted to generate IC50 values. One skilled in the art will appreciate that the values generated either as percentage inhibition at a single concentration or IC50 values are subject to experimental variation.
(Time-resolved FRET reads energy transfer from a long-lived donor to a nearby acceptor.)

The target in assay [2] is T2, Human PI3K delta (Homo sapiens, UniProt O00329).
T2 construct: His (N); host or cells: SF9 insect cells (baculovirus)
T2 sequence (O00329 whole entry): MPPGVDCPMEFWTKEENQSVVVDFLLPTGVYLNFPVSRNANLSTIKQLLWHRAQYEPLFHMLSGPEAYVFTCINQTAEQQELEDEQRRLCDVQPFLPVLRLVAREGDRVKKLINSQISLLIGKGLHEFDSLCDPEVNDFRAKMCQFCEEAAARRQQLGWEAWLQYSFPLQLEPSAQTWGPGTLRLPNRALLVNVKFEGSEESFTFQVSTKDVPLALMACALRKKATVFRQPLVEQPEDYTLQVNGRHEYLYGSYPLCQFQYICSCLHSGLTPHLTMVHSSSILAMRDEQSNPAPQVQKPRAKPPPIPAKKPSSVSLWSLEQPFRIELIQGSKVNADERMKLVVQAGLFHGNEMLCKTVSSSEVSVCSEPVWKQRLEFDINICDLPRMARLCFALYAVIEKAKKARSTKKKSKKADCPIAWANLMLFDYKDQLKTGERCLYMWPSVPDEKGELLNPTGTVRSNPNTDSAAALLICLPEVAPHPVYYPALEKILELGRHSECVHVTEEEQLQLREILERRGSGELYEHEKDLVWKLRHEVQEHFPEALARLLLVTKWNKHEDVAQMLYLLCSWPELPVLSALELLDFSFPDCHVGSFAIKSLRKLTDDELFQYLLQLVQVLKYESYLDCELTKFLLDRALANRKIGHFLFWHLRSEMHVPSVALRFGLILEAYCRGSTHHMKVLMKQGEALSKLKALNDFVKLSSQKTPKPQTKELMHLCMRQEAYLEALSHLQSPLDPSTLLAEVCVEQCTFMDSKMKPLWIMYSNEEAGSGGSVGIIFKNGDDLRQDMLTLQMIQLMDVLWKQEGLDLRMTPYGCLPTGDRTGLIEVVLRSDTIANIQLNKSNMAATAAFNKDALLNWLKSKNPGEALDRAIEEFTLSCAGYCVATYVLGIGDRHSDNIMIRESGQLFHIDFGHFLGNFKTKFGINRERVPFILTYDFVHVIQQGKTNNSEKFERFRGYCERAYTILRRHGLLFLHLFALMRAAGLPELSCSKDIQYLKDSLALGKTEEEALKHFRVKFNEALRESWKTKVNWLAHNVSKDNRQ
T2 sequence (P27986 whole entry partner): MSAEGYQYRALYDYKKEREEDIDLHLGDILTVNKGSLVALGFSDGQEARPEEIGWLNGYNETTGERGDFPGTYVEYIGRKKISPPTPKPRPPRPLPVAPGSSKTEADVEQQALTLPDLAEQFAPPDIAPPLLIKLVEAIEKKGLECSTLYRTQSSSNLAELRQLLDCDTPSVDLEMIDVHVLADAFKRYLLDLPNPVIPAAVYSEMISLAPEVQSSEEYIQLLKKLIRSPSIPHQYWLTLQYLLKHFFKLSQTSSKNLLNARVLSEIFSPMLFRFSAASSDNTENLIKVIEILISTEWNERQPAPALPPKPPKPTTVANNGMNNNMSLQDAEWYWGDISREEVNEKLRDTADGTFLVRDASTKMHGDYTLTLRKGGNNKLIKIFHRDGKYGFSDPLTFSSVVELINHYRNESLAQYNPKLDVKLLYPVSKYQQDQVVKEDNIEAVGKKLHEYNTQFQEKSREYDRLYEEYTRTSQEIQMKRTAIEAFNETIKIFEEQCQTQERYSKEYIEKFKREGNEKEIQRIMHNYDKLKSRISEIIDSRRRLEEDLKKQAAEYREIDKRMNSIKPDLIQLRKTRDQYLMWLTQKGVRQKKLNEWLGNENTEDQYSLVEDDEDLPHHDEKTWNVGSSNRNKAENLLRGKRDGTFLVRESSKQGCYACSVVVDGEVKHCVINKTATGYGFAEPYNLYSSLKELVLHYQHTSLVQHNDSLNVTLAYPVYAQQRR
As to the kind of experiment: Human PI3K delta enzyme assay (HTRF).
Description: as §1, §2, §3, §4, §5, §6

Assay [3] concerns the target T3, Human PI3K beta (Homo sapiens, UniProt P42338).
T3 construct: His (N); host or cells: SF9 insect cells (baculovirus)
In words: Human PI3K beta enzyme assay (HTRF). The method, boiled down:
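Compounds were mixed with 25 uM ATP, then with 3.5 uM di-C8 PI(4,5)P2 and His-tagged PI3K isoform (β 5.25 nM, δ 0.75 nM, γ 5 nM) at pH 7.00. After 30 min at room temperature, EDTA stopped the reaction and PIP3 was measured by HTRF over 1 h.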

Assay [4] addresses T4, Human PI3K alpha (Homo sapiens, UniProt P42336).
T4 construct: His (N); host or cells: SF9 insect cells (baculovirus)
As to the kind of experiment: Human PI3K alpha enzyme assay (HTRF).

[5] abbreviates: concentration not given, b1389 states 1.0 μM for PI3K δ and γ.
Where [6] appears, read: concentration not given, b1387 states 1.1 μM for PI3K α and β.
[7] abbreviates: concentration not given, b1389 states 1.0 μM for PI3K δ and γ, read-out: p110 gamma Percent Inhibition.
[8] abbreviates: concentration not given, b1389 states 1.0 μM for PI3K δ and γ, read-out: p110 delta Percent Inhibition.
Setting [9] is: concentration not given, b1387 states 1.1 μM for PI3K α and β, read-out: p110 beta Percent Inhibition.
[10] abbreviates: concentration not given, b1387 states 1.1 μM for PI3K α and β, read-out: p110 alpha Percent Inhibition.

T3 sequence (P42338 whole entry): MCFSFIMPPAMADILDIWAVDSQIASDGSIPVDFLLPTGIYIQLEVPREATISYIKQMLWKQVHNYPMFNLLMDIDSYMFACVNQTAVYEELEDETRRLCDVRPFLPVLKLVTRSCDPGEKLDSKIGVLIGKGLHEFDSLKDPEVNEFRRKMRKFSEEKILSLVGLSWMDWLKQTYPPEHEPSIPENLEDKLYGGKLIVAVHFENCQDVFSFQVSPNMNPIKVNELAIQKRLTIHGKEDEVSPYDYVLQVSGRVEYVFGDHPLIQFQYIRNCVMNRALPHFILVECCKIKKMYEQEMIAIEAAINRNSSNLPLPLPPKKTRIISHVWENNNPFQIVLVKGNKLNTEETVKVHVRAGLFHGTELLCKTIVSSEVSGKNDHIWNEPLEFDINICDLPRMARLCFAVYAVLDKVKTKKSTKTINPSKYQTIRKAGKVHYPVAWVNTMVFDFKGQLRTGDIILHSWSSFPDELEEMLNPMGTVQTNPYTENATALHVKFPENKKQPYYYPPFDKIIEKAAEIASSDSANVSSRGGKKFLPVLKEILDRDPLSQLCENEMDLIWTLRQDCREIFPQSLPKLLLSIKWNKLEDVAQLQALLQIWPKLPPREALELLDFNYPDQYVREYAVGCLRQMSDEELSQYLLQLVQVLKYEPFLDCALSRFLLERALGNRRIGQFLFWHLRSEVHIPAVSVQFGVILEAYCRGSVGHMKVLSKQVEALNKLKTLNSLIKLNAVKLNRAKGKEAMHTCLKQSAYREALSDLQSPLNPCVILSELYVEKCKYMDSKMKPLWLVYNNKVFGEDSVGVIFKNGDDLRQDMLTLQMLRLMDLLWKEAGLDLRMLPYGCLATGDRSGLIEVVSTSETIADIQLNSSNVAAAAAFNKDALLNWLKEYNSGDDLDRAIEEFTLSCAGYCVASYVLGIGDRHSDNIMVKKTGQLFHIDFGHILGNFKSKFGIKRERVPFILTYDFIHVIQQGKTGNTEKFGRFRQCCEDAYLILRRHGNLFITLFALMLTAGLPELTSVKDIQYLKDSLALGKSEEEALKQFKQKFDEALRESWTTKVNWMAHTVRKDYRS
T3 sequence (P27986 whole entry partner): as the sequence (P27986 whole entry partner) above
T1 sequence (P48736 whole entry): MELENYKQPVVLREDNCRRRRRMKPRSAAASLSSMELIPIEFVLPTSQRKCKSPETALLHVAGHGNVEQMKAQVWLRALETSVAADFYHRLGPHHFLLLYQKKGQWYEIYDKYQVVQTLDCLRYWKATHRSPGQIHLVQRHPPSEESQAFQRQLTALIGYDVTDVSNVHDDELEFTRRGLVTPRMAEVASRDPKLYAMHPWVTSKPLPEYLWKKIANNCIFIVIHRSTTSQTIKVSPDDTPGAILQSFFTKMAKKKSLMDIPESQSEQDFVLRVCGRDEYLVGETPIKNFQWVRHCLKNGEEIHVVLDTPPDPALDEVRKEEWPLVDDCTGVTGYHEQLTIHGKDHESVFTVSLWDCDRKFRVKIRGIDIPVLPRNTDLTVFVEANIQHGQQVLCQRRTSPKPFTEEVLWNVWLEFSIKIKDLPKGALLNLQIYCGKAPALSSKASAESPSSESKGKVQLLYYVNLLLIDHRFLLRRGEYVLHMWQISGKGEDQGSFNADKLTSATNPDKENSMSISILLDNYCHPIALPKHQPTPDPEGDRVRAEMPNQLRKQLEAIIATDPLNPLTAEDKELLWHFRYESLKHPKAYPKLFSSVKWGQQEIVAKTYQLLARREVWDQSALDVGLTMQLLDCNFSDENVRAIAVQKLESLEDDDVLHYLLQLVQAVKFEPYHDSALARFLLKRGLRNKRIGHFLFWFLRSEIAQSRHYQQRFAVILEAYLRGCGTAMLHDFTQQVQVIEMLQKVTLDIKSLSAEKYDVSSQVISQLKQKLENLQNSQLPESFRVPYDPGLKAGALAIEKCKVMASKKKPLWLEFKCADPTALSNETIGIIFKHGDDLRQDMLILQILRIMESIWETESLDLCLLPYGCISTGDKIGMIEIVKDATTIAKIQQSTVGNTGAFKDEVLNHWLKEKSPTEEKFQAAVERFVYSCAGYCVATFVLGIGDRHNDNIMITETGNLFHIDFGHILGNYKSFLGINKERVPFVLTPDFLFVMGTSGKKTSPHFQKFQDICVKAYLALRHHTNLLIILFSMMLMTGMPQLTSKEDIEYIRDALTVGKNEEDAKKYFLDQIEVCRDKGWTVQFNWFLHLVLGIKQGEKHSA
T4 sequence (P42336 whole entry): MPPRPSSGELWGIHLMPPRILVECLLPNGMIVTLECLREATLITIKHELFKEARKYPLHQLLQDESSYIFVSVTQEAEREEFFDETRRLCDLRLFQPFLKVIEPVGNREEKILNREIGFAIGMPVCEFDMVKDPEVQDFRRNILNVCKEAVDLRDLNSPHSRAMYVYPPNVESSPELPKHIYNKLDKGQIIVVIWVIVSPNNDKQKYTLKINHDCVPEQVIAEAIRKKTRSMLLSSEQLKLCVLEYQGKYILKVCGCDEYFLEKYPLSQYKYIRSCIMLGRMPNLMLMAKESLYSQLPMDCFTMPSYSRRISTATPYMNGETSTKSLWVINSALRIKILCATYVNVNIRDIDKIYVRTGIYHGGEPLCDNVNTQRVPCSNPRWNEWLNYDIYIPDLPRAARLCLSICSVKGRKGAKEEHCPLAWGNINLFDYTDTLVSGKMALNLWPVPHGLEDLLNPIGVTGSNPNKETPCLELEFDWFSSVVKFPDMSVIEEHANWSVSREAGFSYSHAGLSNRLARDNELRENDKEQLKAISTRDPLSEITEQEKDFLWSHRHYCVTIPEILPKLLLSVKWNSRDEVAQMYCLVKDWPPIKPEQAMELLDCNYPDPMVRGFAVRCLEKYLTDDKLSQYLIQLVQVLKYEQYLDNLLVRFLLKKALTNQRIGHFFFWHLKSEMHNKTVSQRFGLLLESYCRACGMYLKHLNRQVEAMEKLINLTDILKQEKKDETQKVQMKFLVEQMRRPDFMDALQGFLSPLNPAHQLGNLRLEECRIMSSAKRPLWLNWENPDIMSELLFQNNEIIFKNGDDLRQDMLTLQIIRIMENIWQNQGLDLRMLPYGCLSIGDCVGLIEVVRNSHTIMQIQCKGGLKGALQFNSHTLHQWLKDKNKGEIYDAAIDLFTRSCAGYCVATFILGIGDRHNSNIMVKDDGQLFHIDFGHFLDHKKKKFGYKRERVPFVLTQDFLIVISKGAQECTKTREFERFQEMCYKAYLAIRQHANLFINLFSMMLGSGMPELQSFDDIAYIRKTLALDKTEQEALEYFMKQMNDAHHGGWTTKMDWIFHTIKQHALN
T4 sequence (P27986 whole entry partner): as the sequence (P27986 whole entry partner) above

Regarding `CC(=O)Nc1cc(-c2cc(C(c3ccc(Cl)cc3)N3CCC[C@@H]3CO)c(-c3nnc[nH]3)s2)ccn1` (single isomer, unassigned) [Compound 283], in assay [1] (setting [5]), the “p110 gamma Percent Inhibition” value was 18%. Also, in assay [2] (setting [5]), the “p110 delta Percent Inhibition” value was 99%. The “p110 beta Percent Inhibition” value in assay [3] (setting [6]) turned out to be 98%. For the same molecule, the “p110 alpha Percent Inhibition” value in assay [4] (setting [6]) was 96%.
For the molecule `O=C(O)c1sc(N2CCOCC2)nc1Cc1ccc(Cl)cc1` [Compound 91, 4-(4-chlorobenzyl)-2-morpholinothiazole-5-carboxylic acid], the inhibition at 1 µM amounted to 15.4% in assay [1] (at a 1.0 μM concentration, read-out: PI3Kγ Percent Inhibition) and 84.8% in assay [2] (at a 1.0 μM concentration, read-out: PI3Kδ Percent Inhibition). The inhibition at 1.1 µM in assay [3] (at a 1.1 μM concentration, read-out: PI3β Percent Inhibition) is 105%; in assay [4] (at a 1.1 μM concentration, read-out: PI3Kα Percent Inhibition) it was 27%. For the same molecule, the IC50 in assay [3] (read-out: PI3 Kbeta IC50) is less than 100 nM; in assay [4] (read-out: PI3Kalpha IC50) it was greater than 1000 nM.
Turning to `CC(=O)Nc1cc(-c2cc(C(NCC3CNC3)c3ccc(Cl)cc3)c(-c3nnc[nH]3)s2)ccn1` (stereo not drawn) [Compound 129], the inhibition at 1 µM in assay [1] (setting [7]) worked out at 32%; in assay [2] (setting [8]), 109%. Besides, the inhibition at 1.1 µM in assay [3] (setting [9]) is 106%; in assay [4] (setting [10]) it was 83%.
As to `COc1ccc(C(O)c2cc(-c3ccncc3)sc2-c2nnc[nH]2)cc1F` (stereo not drawn) [Compound 130], the inhibition at 1 µM in assay [1] (setting [7]) was determined as 22%; in assay [2] (setting [8]) it was 62%. Further, the inhibition at 1.1 µM in assay [3] (setting [9]) was determined as 73%; in assay [4] (setting [10]) it was 21%.
Take `CC(=O)Nc1cc(-c2sc(-c3nnc[nH]3)c([S+]([O-])c3ccc(Cl)cc3)c2C#N)ccn1` (stereo not drawn) [Compound 131, N-{4-[4-[(4-chlorophenyl)sulfinyl]-3-cyano-5-(4H-1,2,4-triazol-3-yl)-2-thienyl]pyridin-2-yl}acetamide]: the inhibition at 1 µM is 5% in assay [1] (setting [7]) and 80% in assay [2] (setting [8]). In addition, the results for the inhibition at 1.1 µM in assay [3] (setting [9]) and in assay [4] (setting [10]) were 78% and 75%, respectively.
`OC(c1cnc2ccccc2c1)c1cc(-c2ccncc2)sc1-c1nnc[nH]1` (stereo not drawn) [Compound 132]: the inhibition at 1 µM in assay [1] (setting [7]) is 53%; in assay [2] (setting [8]), 77%. In addition, the values for the inhibition at 1.1 µM in assay [3] (setting [9]) and in assay [4] (setting [10]) were 103% and 45%, respectively.
Regarding `OC(c1nc(-c2ccccc2)cs1)c1cc(-c2ccncc2)sc1-c1nnc[nH]1` (stereo not drawn) [Compound 133], the inhibition at 1 µM in assay [1] (setting [7]) came to 26%; in assay [2] (setting [8]) it was 74%. For the same molecule, the inhibition at 1.1 µM in assay [3] (setting [9]) is 101%; in assay [4] (setting [10]), 84%.
`OC(c1ccc2c(c1)OC(F)(F)O2)c1cc(-c2ccncc2)sc1-c1nnc[nH]1` (stereo not drawn) [Compound 134]: the inhibition at 1 µM in assay [1] (setting [7]) was determined as 8%; in assay [2] (setting [8]), 44%. In addition, the inhibition at 1.1 µM amounted to 72% in assay [3] (setting [9]) and 21% in assay [4] (setting [10]).
The matching figures for `CC(=O)Nc1cc(-c2cc(C(NCC(F)(F)F)c3ccc(Cl)cc3)c(-c3nnc[nH]3)s2)ccn1` (stereo not drawn) [Compound 135]: 8%, 99%, 87% and 78%.
In the case of `OC(c1cc2ccccc2cc1F)c1cc(-c2ccncc2)sc1-c1nnc[nH]1` (stereo not drawn) [Compound 136], the results for the inhibition at 1 µM in assay [1] (setting [7]) and in assay [2] (setting [8]) were 67% and 109%, respectively. In addition, in assay [3] (setting [9]), the inhibition at 1.1 µM turned out to be 110%. The “p110 alpha Percent Inhibition” value in assay [4] (setting [6]) was found to be 80%.
Take `Clc1cccc(Cc2nc(-c3ccncc3)sc2-c2nnc[nH]2)c1` [Compound 137]: the results for the inhibition at 1 µM in assay [1] (setting [7]) and in assay [2] (setting [8]) were 12% and 30%, respectively. In addition, the inhibition at 1.1 µM in assay [3] (setting [9]) was determined as 54%; in assay [4] (setting [10]) it was 12%.
On to `Cc1c(F)cccc1C(O)c1cc(-c2ccncc2)sc1-c1nnc[nH]1` (stereo not drawn) [Compound 138], for which the inhibition at 1 µM was 13% in assay [1] (setting [7]) and 69% in assay [2] (setting [8]). Besides, the inhibition at 1.1 µM in assay [3] (setting [9]) stood at 86%; in assay [4] (setting [10]) it was 43%.
With `CC(=O)Nc1cc(-c2cc(C(c3ccc(Cl)cc3)N3CCC(CN)C3)c(-c3nnc[nH]3)s2)ccn1` (stereo not drawn) [Compound 139], the inhibition at 1 µM in assay [1] (setting [7]) is 24%; in assay [2] (setting [8]), 105%. Besides, the inhibition at 1.1 µM in assay [3] (setting [9]) turned out to be 100%; in assay [4] (setting [10]), 77%.

These data come from patent publication US8796268B2, “Heteroaryls and uses thereof” (Millennium Pharmaceuticals, Inc., priority 2010, dated 2014).
